From PMC5755735, “Discovery of indolylpiperazinylpyrimidines with dual-target profiles at adenosine A2A and dopamine D2 receptors for Parkinson's disease treatment” (PLoS ONE, 2018)
Values joined by “and” are separate entries in the source; they are usually repeats but may differ in a detail not shown here. Equal entries are not always repeated.

Legend:
[1] = biological target: human dopamine D2 receptor (Homo sapiens, UniProt P14416); experiment: D2R-proteopolymersomes-based fluorescence competition assay with BODIPY-NAPS; assay type: binding; design: made in house; host or cells: in vitro (cell-free) synthesis, inserted into polymersomes; conditions: + D2-ACM (D2R-proteopolymersomes); read-out: EC50 (D2 receptor, displacement of BODIPY-NAPS)
Method: For the replacement assay, ABA-polymersomes were covalently attached to an amino-functionalized glass slide, which was then treated with isopropanol, ultrapure water and a N2-stream. […] Program ImageJ was used for determination of fluorescence intensities.

HL-1 cardiomyocyte = experiment: cell viability assay in HL-1 cardiomyocytes (Cell-Titer-Glo); assay type: cell-based; conditions: concentrations less than 30 μM, 24 h
Method: Besides the mutagenicity study, compounds 5 and 6 were also subjected to cell viability assays using transforming growth factor-alpha mouse hepatocyte (TAMH) and HL-1 cardiomyocyte to assess the cytotoxic potential. TAMH lines were treated with compounds 5 and 6 in eight different concentrations (100 μM, 33.3 μM, 11.1 μM, 3.7 μM, 1.23 μM, 0.41 μM, 0.13 μM, 0.045 μM), and the percentage of viable cells was plotted against the logarithm of ligand concentration (S10B and S10C Fig). […] Acetaminophen, a drug with direct hepatotoxic potential, was used as the positive control in this assay (S10A Fig). […] Doxorubicin, a chemotherapeutic agent known to cause dose-dependent cardiotoxicity, was used as the positive control in this assay (S10D Fig).
Immortalised hepatocyte and cardiomyocyte cell lines, TAMH (TGF-α overexpressing mouse hepatocytes) and HL-1 were used respectively as models for in vitro toxicity studies. Both cell lines were cultured in accordance with previously described methods. […] The cell-reagent mixture was transferred to a solid white flat-bottom 96-well plate (Greiner 655207) for luminescence reading. Luminescence was recorded with an integration time of 0.25 second with a Tecam Infinite® M200 Microplate reader. Data are expressed as percentage of viable cells compared to DMSO-treated controls. […]

LRRK2 G2019S flies = experiment: fly viability / survival of mutant LRRK2 G2019S flies; assay type: in vivo; conditions: for effect on fly viability / mortality: concentrations in the 50–100 μM range; for effect on fly viability: ligand concentration 500 μM
Method: Studies have shown that expression of the LRRK2-G2019S mutantion in Drosophila caused more severe PD phenotypes, including locomotor dysfunction, loss of dopaminergic neurons, and early mortality, relative to that of wild-type LRRK2 [31]. Prior to evaluating compounds 5 and 6 in the Drosophila model of PD, the effect of compound concentrations on fly viability was studied. At the ligand concentration of 500 μM, both compounds were lethal to G2019S flies (data not shown). […] As there was no remarkable difference in the survival rate between 50 and 100 μM for compound 5, this range was selected for compound 5 for the subsequent climbing assay and quantification of DA neurons.
Fly lines for 24B-Gal4 (muscle specific), ddc-Gal4 (dopaminergic neuron-specific), elav-Gal4 (pan-neuronal), UAS-mito-GFP, and UAS-dAMPK-KA were purchased from Bloomington Drosophila Stock Center. The parkin-null mutant flies were kind gifts from Chung J. and Cho K. S. (Korea Advanced Institute of Science and Technology, Daejeon, Korea). To generate transgenic mutant LRRK2 G2019S, cDNA containing a myc-tag at the C terminus was inserted into pUAST plasmid and microinjected into Drosophila embryos (BestGene). Sequencing of cloned products was performed before they were microinjected into the embryos. Climbing assays were performed according to a previously described method. Briefly, 20 female adult flies from each group were randomly selected after being anaesthetised and placed in a vertical plastic column (length 25 cm; diameter 1.5 cm). Age-matched normal flies were used as controls. After a 2-hour recovery period from CO2 exposure, flies were gently tapped to the bottom of the column, and the number of flies that reached the top of column at 1 min was counted. Results are presented as mean ± SEM of the scores obtained from three independent experiments. To study the effect of compounds, flies were fed with cornmeal-agar medium supplemented with the DMSO solution of the compound immediately at post-eclosion (for parkin-null flies) or at day 35 onwards (for LRRK2 mutant flies) for a period of 25 days. Immunohistochemical analysis of whole-mount adult fly brains were prepared according to published protocols and stained with rabbit anti-TH (1:300, Pel-Freez Biologicals) as primary antibody. The stained samples were viewed using an Olympus Fluoview Upright Confocal Microscope. DA neurons were quantified according to previously published method. The size of mito-GFP puncta was measured using the ImageJ program and expressed as mean ± SD (n ≥ 10 DA neurons per experimental group). Statistical significance for all the quantitative data obtained were analyzed using one-way ANOVA with Tukey’s test HSD post hoc test (*p < 0.05, **p < 0.01).

Chain of human dopamine D2 receptor (P14416 whole entry): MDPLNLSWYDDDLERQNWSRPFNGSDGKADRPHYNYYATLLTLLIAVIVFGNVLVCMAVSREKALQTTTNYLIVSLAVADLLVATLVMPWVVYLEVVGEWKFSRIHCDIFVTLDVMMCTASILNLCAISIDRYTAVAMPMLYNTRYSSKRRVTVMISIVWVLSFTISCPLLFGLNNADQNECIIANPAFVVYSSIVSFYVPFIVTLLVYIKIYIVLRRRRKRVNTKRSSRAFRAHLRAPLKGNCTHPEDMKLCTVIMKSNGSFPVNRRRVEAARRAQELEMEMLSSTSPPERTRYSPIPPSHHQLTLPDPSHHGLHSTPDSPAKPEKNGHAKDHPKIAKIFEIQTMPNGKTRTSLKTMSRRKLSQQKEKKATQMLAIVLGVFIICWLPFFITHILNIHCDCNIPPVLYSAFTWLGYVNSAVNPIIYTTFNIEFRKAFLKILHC

Compound	EC50 [1]	cytotoxicity (cell viability) (HL-1 cardiomyocyte)	effect on fly viability / mortality (LRRK2 G2019S flies)	effect on fly viability (LRRK2 G2019S flies)
Cc1cc(C)nc(N2CCN(C(=O)Cc3c(C)[nH]c4ccccc34)CC2)n1 [Compound 6, 1‐[4‐(4,6‐Dimethylpyrimidin‐2‐yl)piperazin‐1‐yl]‐2‐(2‐methyl‐1H‐indol‐3‐yl)ethan‐1‐one]	22.5 to 40.2 µM and 40.2 µM	no toxicity observed	toxicity	lethal
Cc1cc(C)nc(N2CCN(C(=O)c3c[nH]c4ccccc34)CC2)n1 [Compound 5, 3‐[4‐(4,6‐Dimethylpyrimidin‐2‐yl)piperazine‐1‐carbonyl]‐1H‐indole]	22.5 to 40.2 µM and 22.5 µM	no toxicity observed	able to delay the G2019S fly mortality	lethal
